# In PubChem BioAssay (NCI):
#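 These data come from cells grown in 96-well plates and exposed to compound for 48 hours at five concentrations. GI50 is the concentration that inhibits growth by half. At the TGI there is no net growth.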
# Assays:
# Experiment in all cases: NCI tumour cell line growth inhibition, 48 h
# OVCAR-4 ovarian = tested on: OVCAR-4 ovarian
# U251 CNS = tested on: U251 CNS
# UACC-257 melanoma = tested on: UACC-257 melanoma
# DU-145 prostate = tested on: DU-145 prostate
# HT29 colon = tested on: HT29 colon
# SK-OV-3 ovarian = tested on: SK-OV-3 ovarian
# SF-539 CNS = tested on: SF-539 CNS
# SK-MEL-28 melanoma = tested on: SK-MEL-28 melanoma
# SK-MEL-2 melanoma = tested on: SK-MEL-2 melanoma
# SW-620 colon = tested on: SW-620 colon
SMILES,GI50 (OVCAR-4 ovarian),TGI (OVCAR-4 ovarian),GI50 (U251 CNS),TGI (U251 CNS),GI50 (UACC-257 melanoma),TGI (UACC-257 melanoma),GI50 (DU-145 prostate),TGI (DU-145 prostate),GI50 (HT29 colon),TGI (HT29 colon),GI50 (SK-OV-3 ovarian),TGI (SK-OV-3 ovarian),GI50 (SF-539 CNS),TGI (SF-539 CNS),GI50 (SK-MEL-28 melanoma),TGI (SK-MEL-28 melanoma),GI50 (SK-MEL-2 melanoma),TGI (SK-MEL-2 melanoma),GI50 (SW-620 colon),TGI (SW-620 colon)
O=C(Nc1ccccc1)NS(=O)(=O)c1ccc(-n2nc3c(c2-c2cccs2)Cc2ccccc2-3)cc1,34.9 µM,> 100 µM,22.9 µM,55.3 µM,17.7 µM,67.7 µM,28.6 µM,96.2 µM,26.7 µM,> 100 µM,60.8 µM,> 100 µM,25 µM,55.5 µM,50.2 µM,> 100 µM,70.1 µM,> 100 µM,22.9 µM,51.2 µM
Cn1c2ccccc2c2c(Nc3ccccc3)c3ccccc3nc21,21.1 µM,> 100 µM,22.7 µM,71.8 µM,33 µM,> 100 µM,9.35 µM,50.4 µM,5.66 µM,60.7 µM,41 µM,> 100 µM,12.1 µM,28.6 µM,17 µM,49.6 µM,80 µM,> 100 µM,17.1 µM,58.3 µM
OCc1ccc(N2CCC2c2ccc(F)cc2)cc1Cl (centres undefined),0.925 µM,> 59.3 µM,3.92 µM,> 46.5 µM,0.278 µM,1.98 µM,35.8 µM,> 100 µM,5.13 µM,33 µM,20.5 µM,> 89.1 µM,33.5 µM,> 71 µM,28.7 µM,> 100 µM,11.4 µM,29.3 µM,4.93 µM,> 100 µM
O=C(Nc1ccccc1OC(F)(F)F)Nc1n[nH]c2ccccc12,37.7 µM,> 100 µM,31.1 µM,> 100 µM,47.2 µM,> 100 µM,51.7 µM,> 100 µM,26.1 µM,> 100 µM,> 100 µM,> 100 µM,30.5 µM,> 100 µM,42.2 µM,> 100 µM,81.4 µM,> 100 µM,36.8 µM,> 100 µM
Cc1ccc2c(=O)cc(-c3ccc(F)cc3)[nH]c2n1,,> 100 µM,37.3 µM,> 100 µM,,> 100 µM,,> 100 µM,,> 100 µM,,> 100 µM,,> 100 µM,,> 100 µM,,> 100 µM,,> 100 µM
CCCCCN(CCCCC)CC(O)c1cc(C)c2ccc3cc(C(C)C)ccc3c2c1 (centres undefined),1.92 µM,3.75 µM,1.9 µM,3.82 µM,1.99 µM,3.97 µM,1.89 µM,3.37 µM,,,1.72 µM,3.46 µM,1.79 µM,3.36 µM,1.76 µM,3.27 µM,2.2 µM,4.83 µM,1.81 µM,3.61 µM
